Patent publication US9394311B2, “Triazolo compounds as PDE10 inhibitors” (Hoffmann-La Roche Inc., priority 2012, dated 2016)

target: human PDE10A (Homo sapiens (Human), UniProt Q9Y233); experiment: human PDE10A full length Scintillation Proximity Assay (SPA); type: biochemical; conditions: PDE10A full length enzyme, 50 nM cGMP / [3H]-cGMP substrate, 20 minutes at room temperature
How it was run: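 Full-length human PDE10A with 50 nM cGMP plus 50 nM [3H]-cGMP in 20 mM HEPES pH 7.5, 10 mM MgCl2, 0.05 mg/ml BSA; 20 min at room temperature. Stopped with yttrium silicate SPA beads in zinc sulphate, scintillation counted; IC50 from concentration range.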

Chain of human PDE10A (Q9Y233 other isoform, or with tags, fused parts or gaps): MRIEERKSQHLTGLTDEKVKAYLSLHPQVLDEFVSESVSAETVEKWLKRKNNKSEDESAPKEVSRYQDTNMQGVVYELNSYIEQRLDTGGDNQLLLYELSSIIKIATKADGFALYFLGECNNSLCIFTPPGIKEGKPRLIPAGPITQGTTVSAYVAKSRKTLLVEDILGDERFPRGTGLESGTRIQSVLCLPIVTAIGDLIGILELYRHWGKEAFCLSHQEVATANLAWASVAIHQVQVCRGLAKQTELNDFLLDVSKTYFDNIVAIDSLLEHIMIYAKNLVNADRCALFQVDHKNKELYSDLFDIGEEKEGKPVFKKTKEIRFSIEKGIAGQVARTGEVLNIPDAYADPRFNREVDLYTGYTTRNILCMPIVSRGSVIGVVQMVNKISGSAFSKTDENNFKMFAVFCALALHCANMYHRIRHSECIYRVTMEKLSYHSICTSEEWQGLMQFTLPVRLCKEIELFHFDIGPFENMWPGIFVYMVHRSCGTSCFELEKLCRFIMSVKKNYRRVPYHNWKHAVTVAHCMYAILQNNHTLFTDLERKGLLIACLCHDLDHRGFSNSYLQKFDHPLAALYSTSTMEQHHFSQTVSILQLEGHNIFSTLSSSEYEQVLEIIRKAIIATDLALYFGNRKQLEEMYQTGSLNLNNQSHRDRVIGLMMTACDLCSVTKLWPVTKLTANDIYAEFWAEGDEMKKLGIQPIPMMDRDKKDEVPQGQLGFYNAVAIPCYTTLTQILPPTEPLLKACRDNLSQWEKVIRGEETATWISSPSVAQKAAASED

SMILES | IC50 [nM]
Cc1ncc(C)n2nc(CCc3nc(N4CCC(O)C4)nn3C)nc12 (stereo not drawn) [Example 104, 1-{5-[2-(5,8-Dimethyl-[1,2,4]triazolo[1,5-a]pyrazin-2-yl)-ethyl]-1-methyl-1H-[1,2,4]triazol-3-yl}-pyrrolidin-3-ol] | 131
Cc1ncc(C)n2nc(CCc3nc(N4CC[C@@H](NC(=O)OC(C)(C)C)C4)nn3C)nc12 [Example 107, ((R)-1-{5-[2-(5,8-Dimethyl-[1,2,4]triazolo[1,5-a]pyrazin-2-yl)-ethyl]-1-methyl-1H-[1,2,4]triazol-3-yl}-pyrrolidin-3-yl)-carbamic acid tert-butyl ester] | 171
Cc1ncc(C)n2nc(CCc3nc(N4CCCC4)nn3CC(F)F)nc12 [Example 110, 2-{2-[2-(2,2-Difluoro-ethyl)-5-pyrrolidin-1-yl-2H-[1,2,4]triazol-3-yl]-ethyl}-5,8-dimethyl-[1,2,4]triazolo[1,5-a]pyrazine] | 3.25
Cc1cnc(C)n2nc(CCc3nc(N4CCCC4C)nn3C)nc12 (stereo not drawn) [Example 111, 5,8-Dimethyl-2-{2-[2-methyl-5-(2-methyl-pyrrolidin-1-yl)-2H-[1,2,4]triazol-3-yl]-ethyl}-[1,2,4]triazolo[1,5-c]pyrimidine] | 18.4
Cc1cnc(C)n2nc(CCc3nc(N4CCC[C@@H]4C)nn3C)nc12 [Example 112, 5,8-Dimethyl-2-{2-[2-methyl-5-((S)-2-methyl-pyrrolidin-1-yl)-2H-[1,2,4]triazol-3-yl]-ethyl}-[1,2,4]triazolo[1,5-c]pyrimidine] | 9
Cc1cnc(C)n2nc(CCc3nc(N4CCC[C@H]4C)nn3C)nc12 [Example 113, 5,8-Dimethyl-2-{2-[2-methyl-5-((R)-2-methyl-pyrrolidin-1-yl)-2H-[1,2,4]triazol-3-yl]-ethyl}-[1,2,4]triazolo[1,5-c]pyrimidine] | 131
Cc1ncc(C)n2nc(CCc3nc(N4CCC[C@@H]4C(F)(F)F)nn3C)nc12 [Example 114, 5,8-Dimethyl-2-{2-[2-methyl-5-((R)-2-trifluoromethyl-pyrrolidin-1-yl)-2H-[1,2,4]triazol-3-yl]-ethyl}-[1,2,4]triazolo[1,5-a]pyrazine] | 34.2
Cc1ncc(C)n2nc(CCc3nc(N4CC[C@H](C)C4)nn3C)nc12 [Example 115, 5,8-Dimethyl-2-{2-[2-methyl-5-((S)-3-methyl-pyrrolidin-1-yl)-2H-[1,2,4]triazol-3-yl]-ethyl}-[1,2,4]triazolo[1,5-a]pyrazine] | 5.46
Cc1ncc(C)n2nc(CCc3nc(N4CC[C@@H](C)C4)nn3C)nc12 [Example 116, 5,8-Dimethyl-2-{2-[2-methyl-5-((R)-3-methyl-pyrrolidin-1-yl)-2H-[1,2,4]triazol-3-yl]-ethyl}-[1,2,4]triazolo[1,5-a]pyrazine] | 8.94
Cc1ncc(C)n2nc(CCc3nc(N4CCCC4)n(CC4CC4)n3)nc12 [Example 117b, 2-[2-(1-Cyclopropylmethyl-5-pyrrolidin-1-yl-1H-[1,2,4]triazol-3-yl)-ethyl]-5,8-dimethyl-[1,2,4]triazolo[1,5-a]pyrazine] | 6.69
Cc1cnc(C)n2nc(CCc3nc(N4CCC[C@@H]4C(F)(F)F)nn3C)nc12 [Example 118, 5,8-Dimethyl-2-{2-[2-methyl-5-((R)-2-trifluoromethyl-pyrrolidin-1-yl)-2H-[1,2,4]triazol-3-yl]-ethyl}-[1,2,4]triazolo[1,5-c]pyrimidine] | 27.4
Cc1ncc(C)n2nc(CCc3nc(N4CCCC4)n(C4CC4)n3)nc12 [Example 123b, 2-[2-(1-Cyclopropyl-5-pyrrolidin-1-yl-1H-[1,2,4]triazol-3-yl)-ethyl]-5,8-dimethyl-[1,2,4]triazolo[1,5-a]pyrazine] | 8.2
COC[C@H]1CCCN1c1nc(CCc2nc3c(C)ncc(C)n3n2)n(C)n1 [Example 124, 2-{2-[5-((R)-2-Methoxymethyl-pyrrolidin-1-yl)-2-methyl-2H-[1,2,4]triazol-3-yl]-ethyl}-5,8-dimethyl-[1,2,4]triazolo[1,5-a]pyrazine] | 14.1

Compounds with a lower IC50, results first:

IC50 [nM] | SMILES
0.44 | Cc1c(Cl)cc(C(F)(F)F)c2nc(CCc3nc(N4CCCC4)n(C)n3)nn12 [Example 105, 6-Chloro-5-methyl-2-[2-(1-methyl-5-pyrrolidin-1-yl-1H-[1,2,4]triazol-3-yl)-ethyl]-8-trifluoromethyl-[1,2,4]triazolo[1,5-c]pyridine]
0.55 | Cc1c(Cl)cc(OC(F)F)c2nc(CCc3nc(N4CCCC4)n(C)n3)nn12 [Example 106, 6-Chloro-8-difluoromethoxy-5-methyl-2-[2-(1-methyl-5-pyrrolidin-1-yl-1H-[1,2,4]triazol-3-yl)-ethyl]-[1,2,4]triazolo[1,5-c]pyridine]
0.8 | Cc1ncc(C)n2nc(C#Cc3nc(N4CCCC4)nn3C)nc12 [Example 108, 5,8-Dimethyl-2-(2-methyl-5-pyrrolidin-1-yl-2H-[1,2,4]triazol-3-ylethynyl)-[1,2,4]triazolo[1,5-a]pyrazine]
0.29 | Cc1ncc(C)n2nc(CCc3nc(N4CCCC4)nn3-c3ccccc3)nc12 [Example 109, 5,8-Dimethyl-2-[2-(2-phenyl-5-pyrrolidin-1-yl-2H-[1,2,4]triazol-3-yl)-ethyl]-[1,2,4]triazolo[1,5-a]pyrazine]
1.32 | Cc1ncc(C)n2nc(CCc3nc(N4CCCC4)nn3CC3CC3)nc12 [Example 117a, 2-[2-(2-Cyclopropylmethyl-5-pyrrolidin-1-yl-2H-[1,2,4]triazol-3-yl)-ethyl]-5,8-dimethyl-[1,2,4]triazolo[1,5-a]pyrazine]
0.23 | COCCOc1cc(Cl)c(C)n2nc(CCc3nc(N4CCCC4)nn3C)nc12 [Example 119, 6-Chloro-8-(2-methoxyethoxy)-5-methyl-2-[2-(2-methyl-5-pyrrolidin-1-yl-1,2,4-triazol-3-yl)ethyl]-[1,2,4]triazolo[1,5-a]pyridine]
0.36 | Cc1c(Cl)cc(OC2CCOCC2)c2nc(CCc3nc(N4CCCC4)nn3C)nn12 [Example 120, 6-Chloro-5-methyl-2-(2-(1-methyl-3-(pyrrolidin-1-yl)-1H-1,2,4-triazol-5-yl)ethyl)-8-(tetrahydro-2H-pyran-4-yloxy)-[1,2,4]triazolo[1,5-a]pyridine]
1.37 | Cc1c(Cl)cc(OCCN2CCOCC2)c2nc(CCc3nc(N4CCCC4)nn3C)nn12 [Example 121, 4-[2-[[6-Chloro-5-methyl-2-[2-(2-methyl-5-pyrrolidin-1-yl-1,2,4-triazol-3-yl)ethyl]-[1,2,4]triazolo[1,5-a]pyridin-8-yl]oxy]ethyl]morpholine]
0.35 | Cc1c(Cl)cc(C(F)(F)F)c2nc(CCc3nc(N4CCCC4)nn3C3CCOCC3)nn12 [Example 122, 6-Chloro-5-methyl-2-(2-(3-(pyrrolidin-1-yl)-1-(tetrahydro-2H-pyran-4-yl)-1H-1,2,4-triazol-5-yl)ethyl)-8-(trifluoromethyl)-[1,2,4]triazolo[1,5-a]pyridine]
2.03 | Cc1ncc(C)n2nc(CCc3nc(N4CCCC4)nn3C3CC3)nc12 [Example 123a, 2-[2-(2-Cyclopropyl-5-pyrrolidin-1-yl-2H-[1,2,4]triazol-3-yl)-ethyl]-5,8-dimethyl-[1,2,4]triazolo[1,5-a]pyrazine]
2.71 | Cc1c(Cl)cc(C(F)(F)F)c2nc(CCc3nc(N4CC[C@@H](F)C4)nn3C)nn12 [Example 127, (R)-6-Chloro-2-(2-(3-(3-fluoropyrrolidin-1-yl)-1-methyl-1H-1,2,4-triazol-5-yl)ethyl)-5-methyl-8-(trifluoromethyl)-[1,2,4]triazolo[1,5-a]pyridine]
